{"source": "patent US9445622B2", "about": "“Compositions and methods for improving creatine solubility and stability” (Glanbia Nutritionals (Ireland) Ltd., priority 2009, dated 2016)", "origin": "cited, not measured here", "conditions": "solid form, over years, even at elevated temperatures"}
{"smiles": "CN(CC(=O)O)C(=N)N.O", "note": "[creatine monohydrate powder, creatine monohydrate]", "values": [{"measurement": "stability of solid powder", "result": "no signs of degradation"}]}
